One block for each compound: values may come before it.
Columns and labels:
[1] = test system: IGROV1 human EOC xenografts; assay: In vivo efficacy trial with IGROV1 EOC xenografts in SCID mice
IGROV1 EOC cells = conditions: colony-forming assay; cited from earlier work
IGROV1 knockdown cells = assay: Growth inhibition in IGROV1 FRα knockdown cells; assay type: cell-based, human; conditions: up to 1000 nM drug
[2] = test system: R1–11-FR2 HeLa cells expressing FRα; assay: Cell proliferation assay, FRα-expressing HeLa subline R1–11-FR2
[3] = test system: R1–11-PCFT4 HeLa cells expressing PCFT; assay: Cell proliferation assay, PCFT-expressing HeLa subline R1–11-PCFT4

Compound: Nc1nc2[nH]c(CCCc3ccc(C(=O)N[C@@H](CCC(=O)O)C(=O)O)s3)cc2c(=O)[nH]1 [Compound 1]
tumor burden range ([1]; day 60, folate-deficient diet, iv, 11 Q4dX4 95 (mg/kg)/inj, 1 Q4dX3 32 (mg/kg)/inj): 0 to 196 mg | acute or long-term toxicities ([1]; equitoxic dose levels, SCID mice): no acute or long-term toxicities other than completely reversible loss of weight | antitumor activity on standard (high folate) diet ([1]; standard folate-replete diet): ablated | weight loss or adverse symptoms on standard (high folate) diet ([1]; standard folate-replete diet): No weight losses or other adverse symptoms were observed | cell killing (IGROV1 EOC cells): greater than 99%

Compound: Nc1nc2[nH]c(CCCCc3ccc(C(=O)N[C@@H](CCC(=O)O)C(=O)O)cc3)cc2c(=O)[nH]1 [Compound 2]
growth inhibition upon FRα knockdown (IGROV1 knockdown cells): complete loss of growth inhibition

Compound: Nc1nc2[nH]c(CCCCc3csc(C(=O)N[C@@H](CCC(=O)O)C(=O)O)c3)cc2c(=O)[nH]1 [Compound 5]
growth inhibition upon FRα knockdown (IGROV1 knockdown cells): complete loss of growth inhibition

Compound: Nc1nc2[nH]c(CCCCc3ccc(C(=O)N[C@@H](CCC(=O)O)C(=O)O)c(F)c3)cc2c(=O)[nH]1 [Compound 8, (4-(4-(2-Amino-4-oxo-4,7-dihydro-3H-pyrrolo[2,3-d]pyrimidin-6-yl)butyl)-2-fluorobenzoyl)-L-glutamic Acid]
growth inhibition upon FRα knockdown (IGROV1 knockdown cells): complete loss of growth inhibition

fold IC50 below that for compound 1 ([2]; R1–11-FR2 cells): 6 fold | fold IC50 below that for compound 1 ([3]; R1–11-PCFT cells): 10 fold
Compound: Nc1nc2[nH]c(CCCc3ccc(C(=O)N[C@@H](CCC(=O)O)C(=O)O)c(F)c3)cc2c(=O)[nH]1 [Compound 9, (4-(3-(2-Amino-4-oxo-4,7-dihydro-3H-pyrrolo[2,3-d]pyrimidin-6-yl)propyl)-2-fluorobenzoyl)-L-glutamic Acid]

Compound: Nc1nc2[nH]c(CCCCc3cnc(C(=O)N[C@@H](CCC(=O)O)C(=O)O)c(F)c3)cc2c(=O)[nH]1 [Compound 10, (5-(4-(2-Amino-4-oxo-4,7-dihydro-3H-pyrrolo[2,3-d]pyrimidin-6-yl)butyl)-3-fluoropicolinoyl)-L-glutamic Acid]
growth inhibition upon FRα knockdown (IGROV1 knockdown cells): complete loss of growth inhibition

selectivity for PCFT versus RFC (IC50 R1–11-RFC2/IC50 R1–11-PCFT) ([3]; HeLa sublines): ~ 3
Compound: Nc1nc2[nH]c(CCCc3csc(C(=O)N[C@@H](CCC(=O)O)C(=O)O)c3F)cc2c(=O)[nH]1 [Compound 12, (4-(3-(2-Amino-4-oxo-4,7-dihydro-3H-pyrrolo[2,3-d]pyrimidin-6-yl)propyl)-3-fluorothiophene-2-carbonyl)-L-glutamic Acid]
fold reduced IC50 of fluorinated versus nonfluorinated counterpart ([2]; R1–11-FR2 HeLa cells): 2–3 fold
